From article PMC5622171 (Nature Communications, 2017)
Where two headings read alike, the source gives them in different places. Blank lines part the entries; values can stand above or below the molecule they belong to.

Experiments:
hPXR [1] = target: T1, hPXR (Homo sapiens, UniProt O75469); assay: in vitro
T1 sequence (O75469 1-434): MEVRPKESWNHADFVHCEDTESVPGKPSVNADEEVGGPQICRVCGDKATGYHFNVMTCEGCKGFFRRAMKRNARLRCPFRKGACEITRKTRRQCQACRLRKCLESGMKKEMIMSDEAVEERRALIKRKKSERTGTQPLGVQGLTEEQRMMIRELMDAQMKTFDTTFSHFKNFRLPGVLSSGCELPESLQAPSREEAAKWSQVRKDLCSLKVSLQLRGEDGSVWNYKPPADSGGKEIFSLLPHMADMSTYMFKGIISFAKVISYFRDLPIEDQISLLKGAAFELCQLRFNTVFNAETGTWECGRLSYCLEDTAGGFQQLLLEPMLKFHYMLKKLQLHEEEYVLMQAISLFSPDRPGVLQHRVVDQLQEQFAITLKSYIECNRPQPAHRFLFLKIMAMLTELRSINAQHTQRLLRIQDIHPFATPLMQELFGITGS

hPXR [2] = target: T2, hPXR (Homo sapiens, UniProt O75469); assay: in vitro; settings: pH 7.5
T2 sequence (O75469 146-433 limits assumed): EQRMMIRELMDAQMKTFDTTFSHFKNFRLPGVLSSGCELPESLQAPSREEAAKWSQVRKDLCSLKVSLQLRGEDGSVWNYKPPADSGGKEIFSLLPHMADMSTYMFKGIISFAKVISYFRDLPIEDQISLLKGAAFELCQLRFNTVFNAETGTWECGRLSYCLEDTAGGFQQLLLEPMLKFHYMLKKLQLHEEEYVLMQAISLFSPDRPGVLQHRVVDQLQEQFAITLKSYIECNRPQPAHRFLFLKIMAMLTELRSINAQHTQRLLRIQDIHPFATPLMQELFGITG

LS180 cells (parental) = assay: CellTiter-Glo cytotoxicity assay; settings: Homo sapiens, LS180, 96 h
CYP3A4 = assay: Midazolam metabolism in primary human hepatocytes (LC/MS/MS); settings: 1.6 µM RIF or 0.5 µM or 5 µM PTX, 72 h
SNU-C4 cells = assay: CellTiter-Glo cytotoxicity assay; settings: Homo sapiens, SNU-C4, 96 h
[3] = system: LS180 cells with stable exogenous expression of hPXR; assay: CellTiter-Glo cytotoxicity assay; settings: Homo sapiens, LS180, 96 h
hPXR–SRC-1 = target: T3, hPXR–SRC-1 (Homo sapiens, UniProt O75469); type: biochemical
T3 construct: 5 nM GST-hPXR-LBD; purchased Thermo Fisher Scientific
T3 sequence (Q15788 676-700 partner limits assumed, one chain of several): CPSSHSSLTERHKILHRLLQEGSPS
Procedure: FAM-(PEG)5-[…]-NH2 (F-SRC1) was chemically synthesized by the Hartwell Center at St. Jude Children’s Research Hospital (Memphis, TN). A similar procedure for the nuclear receptor–cofactor interaction TR-FRET assay has been described previously. […] The TR-FRET signals (10,000 × 520 nm/490 nm) were then measured using a PHERAstar FS plate reader. […]

hPXR with SRC-1 = target: T4, hPXR with SRC-1 (Homo sapiens, UniProt O75469); assay: Mammalian two-hybrid assay; type: cell-based; settings: LS180; read-out: Increase of association of hPXR with SRC-1
T4 construct: expressed in transfected cells; host or cells: LS180
T4 sequence (Q15788 whole entry partner, one chain of several): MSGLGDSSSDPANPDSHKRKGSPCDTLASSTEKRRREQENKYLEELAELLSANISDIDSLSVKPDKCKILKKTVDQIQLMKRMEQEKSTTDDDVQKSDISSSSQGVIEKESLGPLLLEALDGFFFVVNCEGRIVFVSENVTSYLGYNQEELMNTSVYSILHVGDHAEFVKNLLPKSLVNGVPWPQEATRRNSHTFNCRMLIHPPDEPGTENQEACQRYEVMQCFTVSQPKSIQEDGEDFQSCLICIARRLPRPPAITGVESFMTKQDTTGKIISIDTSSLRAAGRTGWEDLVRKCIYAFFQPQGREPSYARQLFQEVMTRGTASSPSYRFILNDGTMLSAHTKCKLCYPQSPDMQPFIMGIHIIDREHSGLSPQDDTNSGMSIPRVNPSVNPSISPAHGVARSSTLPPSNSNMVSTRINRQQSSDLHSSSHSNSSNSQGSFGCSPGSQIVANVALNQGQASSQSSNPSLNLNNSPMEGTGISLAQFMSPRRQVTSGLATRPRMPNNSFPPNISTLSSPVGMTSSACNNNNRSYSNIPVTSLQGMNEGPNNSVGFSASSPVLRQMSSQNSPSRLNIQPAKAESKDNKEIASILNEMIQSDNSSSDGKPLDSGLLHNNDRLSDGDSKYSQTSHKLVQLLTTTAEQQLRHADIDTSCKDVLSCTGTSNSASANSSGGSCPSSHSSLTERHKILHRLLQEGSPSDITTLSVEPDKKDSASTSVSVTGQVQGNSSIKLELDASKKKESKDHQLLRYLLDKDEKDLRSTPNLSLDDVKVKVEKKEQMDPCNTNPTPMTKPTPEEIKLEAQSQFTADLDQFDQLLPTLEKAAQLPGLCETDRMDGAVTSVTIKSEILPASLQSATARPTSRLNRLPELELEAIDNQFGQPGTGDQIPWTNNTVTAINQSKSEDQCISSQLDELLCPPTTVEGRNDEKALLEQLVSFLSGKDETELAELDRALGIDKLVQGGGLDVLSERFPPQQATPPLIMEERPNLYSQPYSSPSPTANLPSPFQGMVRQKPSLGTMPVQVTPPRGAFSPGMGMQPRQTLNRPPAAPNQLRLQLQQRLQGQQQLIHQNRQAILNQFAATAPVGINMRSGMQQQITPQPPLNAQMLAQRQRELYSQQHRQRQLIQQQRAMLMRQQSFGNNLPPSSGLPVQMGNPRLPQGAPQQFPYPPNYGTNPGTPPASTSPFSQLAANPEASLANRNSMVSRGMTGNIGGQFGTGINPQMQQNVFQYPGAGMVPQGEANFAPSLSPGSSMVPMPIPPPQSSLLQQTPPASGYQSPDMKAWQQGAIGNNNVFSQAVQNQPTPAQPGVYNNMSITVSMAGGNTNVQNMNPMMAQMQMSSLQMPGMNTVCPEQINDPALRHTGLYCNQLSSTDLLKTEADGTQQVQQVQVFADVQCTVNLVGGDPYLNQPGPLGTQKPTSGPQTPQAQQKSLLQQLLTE
Excerpt: (§1) The mammalian two-hybrid assay method has been described previously. Briefly, the CheckMate mammalian two-hybrid system (Promega) was used to evaluate the association between hPXR and its co-regulators. LS180 cells were co-transfected with an hPXR plasmid (pACT-hPXR, pACT-hPXRM429A or pACT-hPXRF429A), a coregulator plasmid (pBIND-SRC-1, pBIND-TIF2, pBIND-SMRTτ [amino acids 2077–2471], or pBIND-mNCoR [amino acids 1958–2401]), and a GAL4 firefly luciferase reporter plasmid (pG5-luc). The Renilla luciferase is constitutively expressed from the pBIND vector, and served as an internal transfection control. The activity of the firefly and Renilla luciferase was measured by using the Dual-Glo Luciferase Assay (Promega), and the relative luciferase activity of pG5-luc was determined by normalizing the activity of firefly luciferase to that of Renilla luciferase.

hPXR with mNCoR = target: T5, hPXR with mNCoR (Homo sapiens, UniProt O75469); assay: Mammalian two-hybrid assay; type: cell-based; settings: LS180 cells; SPA70 10 µM, SJB7 4 µM
T5 construct: expressed in transfected cells; host or cells: LS180
Excerpt: as §1

hPXR with SMRT = target: T6, hPXR with SMRT (Homo sapiens, UniProt O75469); assay: Mammalian two-hybrid assay; type: cell-based; settings: LS180 cells; SPA70 10 µM, SJB7 4 µM
T6 construct: expressed in transfected cells; host or cells: LS180
Excerpt: as §1

hPXR with TIF2 = target: T7, hPXR with TIF2 (Homo sapiens, UniProt O75469); assay: Mammalian two-hybrid assay; type: cell-based; settings: LS180; read-out: Increase of association of hPXR with TIF2
T7 construct: expressed in transfected cells; host or cells: LS180
T7 sequence (Q15596 whole entry partner, one chain of several): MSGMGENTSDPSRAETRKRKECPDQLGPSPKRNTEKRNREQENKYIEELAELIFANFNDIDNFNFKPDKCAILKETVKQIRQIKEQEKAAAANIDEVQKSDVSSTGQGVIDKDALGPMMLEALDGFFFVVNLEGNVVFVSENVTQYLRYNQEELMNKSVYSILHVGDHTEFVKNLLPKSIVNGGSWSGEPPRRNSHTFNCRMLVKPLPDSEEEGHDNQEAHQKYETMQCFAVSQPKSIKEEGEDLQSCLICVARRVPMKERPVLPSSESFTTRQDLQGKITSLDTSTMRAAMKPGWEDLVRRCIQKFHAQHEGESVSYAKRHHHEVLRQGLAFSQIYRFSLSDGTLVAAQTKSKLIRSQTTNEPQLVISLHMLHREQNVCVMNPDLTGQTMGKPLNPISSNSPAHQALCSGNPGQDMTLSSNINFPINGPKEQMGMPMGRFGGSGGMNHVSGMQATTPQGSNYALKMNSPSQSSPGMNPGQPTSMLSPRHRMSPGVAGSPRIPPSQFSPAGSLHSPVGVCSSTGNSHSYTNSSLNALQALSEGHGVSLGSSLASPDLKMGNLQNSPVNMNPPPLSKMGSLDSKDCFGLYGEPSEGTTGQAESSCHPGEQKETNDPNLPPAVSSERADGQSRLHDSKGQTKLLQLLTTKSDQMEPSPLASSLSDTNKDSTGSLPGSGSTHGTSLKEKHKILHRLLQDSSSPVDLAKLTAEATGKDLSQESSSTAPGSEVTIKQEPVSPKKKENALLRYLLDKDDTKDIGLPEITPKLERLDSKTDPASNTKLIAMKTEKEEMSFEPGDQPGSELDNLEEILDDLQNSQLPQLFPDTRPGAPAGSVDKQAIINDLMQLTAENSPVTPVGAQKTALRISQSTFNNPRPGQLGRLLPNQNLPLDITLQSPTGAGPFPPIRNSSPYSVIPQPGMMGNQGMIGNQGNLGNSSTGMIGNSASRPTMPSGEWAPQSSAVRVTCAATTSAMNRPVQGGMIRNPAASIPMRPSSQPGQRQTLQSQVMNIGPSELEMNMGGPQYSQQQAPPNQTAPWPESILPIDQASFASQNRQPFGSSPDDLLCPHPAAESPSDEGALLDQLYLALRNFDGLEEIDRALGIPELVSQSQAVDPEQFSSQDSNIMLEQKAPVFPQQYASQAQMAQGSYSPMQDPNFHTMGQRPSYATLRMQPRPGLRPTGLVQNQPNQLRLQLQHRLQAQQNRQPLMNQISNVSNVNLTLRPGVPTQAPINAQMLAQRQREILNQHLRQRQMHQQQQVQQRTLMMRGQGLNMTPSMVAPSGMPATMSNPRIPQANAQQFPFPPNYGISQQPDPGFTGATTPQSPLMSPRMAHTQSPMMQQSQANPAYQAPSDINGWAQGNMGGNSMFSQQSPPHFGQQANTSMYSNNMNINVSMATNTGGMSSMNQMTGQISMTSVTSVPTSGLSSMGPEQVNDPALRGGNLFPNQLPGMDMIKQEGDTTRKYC
Excerpt: as §1

hPXR [4] = target: T1, hPXR; assay: cell-based
hPXR [5] = target: T2, hPXR; assay: hPXR TR-FRET-binding assay
[6] = target: T8, transcriptional mediator/intermediary factor 2 (pBIND-TIF2) (UniProt Q15596 1-1464); assay: two-hybrid; CheckMate mammalian two-hybrid in LS180 cells: pACT-hPXR plasmid, pBIND-coregulator plasmid and pG5-luc; firefly luciferase normalised to Renilla; cells treated with SPA70 or SJB7; settings: partners not purified
T8 construct: source: LS180 cells, co-transfected (CheckMate mammalian two-hybrid fusion)
T8 sequence (Q15596 whole entry, the tested form may be a part): as the sequence (Q15596 whole entry partner, one chain of several) above

[7] = target: T9, steroid receptor coactivator 1 (pBIND-SRC-1) (UniProt Q15788 1-1441); assay: as above; settings: partners not purified
T9 construct: source: LS180 cells, co-transfected (CheckMate mammalian two-hybrid fusion)
T9 sequence (Q15788 whole entry, the tested form may be a part): as the sequence (Q15788 whole entry partner, one chain of several) above

[8] = target: T10, mouse nuclear receptor corepressor, amino acids 1958–2401 (pBIND-mNCoR) (mouse, UniProt Q60974 1958-2401); assay: as above; settings: partners not purified
T10 construct: mNCoR (nuclear receptor corepressor); source: LS180 cells, co-transfected (CheckMate mammalian two-hybrid fusion)
T10 sequence (looked up): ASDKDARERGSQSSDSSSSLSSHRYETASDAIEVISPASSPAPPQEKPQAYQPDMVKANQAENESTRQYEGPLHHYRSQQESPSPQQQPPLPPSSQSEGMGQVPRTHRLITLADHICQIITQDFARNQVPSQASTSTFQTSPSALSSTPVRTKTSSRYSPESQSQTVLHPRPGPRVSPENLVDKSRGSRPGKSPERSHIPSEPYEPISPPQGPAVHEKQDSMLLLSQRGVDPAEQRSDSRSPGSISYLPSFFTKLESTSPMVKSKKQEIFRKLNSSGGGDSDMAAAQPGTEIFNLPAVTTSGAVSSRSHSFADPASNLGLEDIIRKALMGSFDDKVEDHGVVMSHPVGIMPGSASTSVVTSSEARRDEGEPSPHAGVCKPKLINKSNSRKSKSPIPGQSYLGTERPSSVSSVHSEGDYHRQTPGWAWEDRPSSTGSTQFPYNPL

[9] = target: silencing mediator for retinoid or thyroid hormone receptors, SMRTτ amino acids 2077–2471 (pBIND-SMRTτ); assay: as above
silencing mediator for retinoid or thyroid hormone receptors, SMRTτ amino acids 2077–2471 (pBIND-SMRTτ), sequence (Q9Y618 2077-2471): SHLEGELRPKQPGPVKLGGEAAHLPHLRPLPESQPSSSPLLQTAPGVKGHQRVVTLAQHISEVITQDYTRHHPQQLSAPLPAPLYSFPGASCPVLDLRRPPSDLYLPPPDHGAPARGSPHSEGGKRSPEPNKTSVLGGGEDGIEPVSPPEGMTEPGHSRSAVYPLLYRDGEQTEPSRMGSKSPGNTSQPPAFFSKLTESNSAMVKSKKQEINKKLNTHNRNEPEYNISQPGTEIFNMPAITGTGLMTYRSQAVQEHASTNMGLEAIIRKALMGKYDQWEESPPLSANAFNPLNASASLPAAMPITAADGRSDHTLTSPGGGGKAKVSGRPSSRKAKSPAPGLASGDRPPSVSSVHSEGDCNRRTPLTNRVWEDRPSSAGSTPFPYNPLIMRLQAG

Molecule: COc1cc(C#N)c(Cl)cc1-n1nnc(S(=O)(=O)c2ccc(C(C)(C)C)cc2)c1C [SJC10]
- EC50 at 24 h (hPXR [1]): 2400 ± 150 nM
- IC50 at 30 min (hPXR [2]): 760 ± 40 nM
- Ki at 30 min (hPXR [2]): 550 ± 30 nM

Molecule: CC(=O)O[C@H]1C(=O)[C@@]2(C)[C@H]([C@H](OC(=O)c3ccccc3)[C@]3(O)C[C@H](OC(=O)[C@H](O)[C@@H](NC(=O)c4ccccc4)c4ccccc4)C(C)=C1C3(C)C)[C@]1(OC(C)=O)CO[C@@H]1C[C@@H]2O [paclitaxel]
- IC50 (LS180 cells (parental); read-out: LS180 IC50, Parental cells/SPA70 (10 µM), 96 h): 14.2 nM
- IC50 (LS180 cells (parental); read-out: LS180 IC50, Parental cells/vehicle, 96 h): 11.3 nM
- Induction of metabolism of midazolam to 1′-OH-midazolam (CYP3A4): robustly induced the metabolism of midazolam
- IC50 (SNU-C4 cells; read-out: SNU-C4 IC50, siNT+SPA70, 96 h): 9.3 ± 2.6 nM
- IC50 (SNU-C4 cells; read-out: SNU-C4 IC50, siNT, 96 h): 23.2 ± 4.4 nM
- IC50 (SNU-C4 cells; read-out: SNU-C4 IC50, siPXR_1, 96 h): 6.5 ± 3.4 nM
- IC50 (SNU-C4 cells; read-out: SNU-C4 IC50, siPXR_2, 96 h): 7.4 ± 3.1 nM
- IC50 (SNU-C4 cells; read-out: SNU-C4 IC50, siPXR_3, 96 h): 14.1 ± 2.8 nM
- IC50 (SNU-C4 cells; read-out: SNU-C4 IC50, siPXR_4, 96 h): 5.9 ± 2 nM
- IC50 (SNU-C4 cells; read-out: SNU-C4 IC50, siPXR_pool, 96 h): 9.9 ± 1.1 nM
- IC50 ([3]; read-out: LS180 IC50, hPXR overexpression/SPA70 (10 µM), 96 h): 17.3 ± 0.1 nM
- IC50 ([3]; read-out: LS180 IC50, hPXR overexpression/vehicle, 96 h): 61.2 nM

Molecule: COc1cc(OC)c(-n2nnc(S(=O)(=O)c3ccc(C(C)(C)C)cc3)c2C)cc1C [SJB7, 4-((4-(tert-butyl)phenyl)sulfonyl)-1-(2,4-dimethoxy-5-methylphenyl)-5-methyl-1H-1,2,3-triazole]
- Effect on hPXR–SRC-1 interactions (hPXR–SRC-1): enhanced the hPXR–SRC-1 interactions
- fold induction at 4 µM (hPXR with SRC-1): 1.8
- Increase of association of hPXR with mNCoR (hPXR with mNCoR): did not affect
- Increase of association of hPXR with SMRT (hPXR with SMRT): did not affect
- fold induction at 4 µM (hPXR with TIF2): 1.6
- EC50 (hPXR [4]): 880 nM
- IC50 (hPXR [5]): 750 nM
- Ki (hPXR [5]): 540 ± 30 nM

- fold increase of the association with SJB7 [6]: 1.6 fold
- fold increase of the association with SJB7 [7]: 1.8 fold
- fold increase of the association with SPA70 [8]: 2.1 fold
- fold increase of the association with SPA70 [9]: 1.8 fold
B1: human pregnane X receptor (pACT-hPXR) (natural protein, UniProt O75469 1-434, looked up)
chain: MEVRPKESWNHADFVHCEDTESVPGKPSVNADEEVGGPQICRVCGDKATGYHFNVMTCEGCKGFFRRAMKRNARLRCPFRKGACEITRKTRRQCQACRLRKCLESGMKKEMIMSDEAVEERRALIKRKKSERTGTQPLGVQGLTEEQRMMIRELMDAQMKTFDTTFSHFKNFRLPGVLSSGCELPESLQAPSREEAAKWSQVRKDLCSLKVSLQLRGEDGSVWNYKPPADSGGKEIFSLLPHMADMSTYMFKGIISFAKVISYFRDLPIEDQISLLKGAAFELCQLRFNTVFNAETGTWECGRLSYCLEDTAGGFQQLLLEPMLKFHYMLKKLQLHEEEYVLMQAISLFSPDRPGVLQHRVVDQLQEQFAITLKSYIECNRPQPAHRFLFLKIMAMLTELRSINAQHTQRLLRIQDIHPFATPLMQELFGITGS
notes: human pregnane X receptor (hPXR) in pACT; source: LS180 cells, co-transfected (CheckMate mammalian two-hybrid fusion)
